This note sets out measurements from patent publication US6403586B1, “Pyridazine derivatives and drugs containing the same as the active ingredient” (Kowa Co., Ltd., priority 1998, dated 2002).

The IC50 is the point on the concentration scale where inhibition reaches its midpoint. High values mean a need for much substance, low ones inhibition by little substance. Broadly, the melting point is the temperature of the solid-liquid transition.

In series [1] the test system is Interleukin-1β (IL-1β) Production in HL-60 cells. Put plainly: Inhibitory activity against interleukin-1β production (Test 1). Format: cell-based. The settings on record: Homo sapiens, 72 h, lipopolysaccharide 10 μg/ml, culturing for 3 days, compared with control without test sample. On the procedure: (Inhibitory activity against interleukin-1β production)
HL-60 cells were cultured for 4 days until confluence on RPMI 1640 medium with 10% fetal bovine serum (FBS) added thereto. The medium was centrifuged. The supernatant was discarded, and the cells were then suspended at 1×10^6 cells/me on RPMI 1640 medium with 3% FBS, and lipopolysaccharide was added to give a final concentration of 10 μg/ml. The culture was inoculated at 1 ml/well to a 24-well plate. A test compound was added at 1 μl/well, followed by culturing for 3 days. Three days later, the amount of interleukin-1β in each […] was determined by a comparison in yield with a control to which no test sample was added.

Regarding `COc1ccc(-c2cc(NC=O)c(=O)n(CC=Cc3ccc(Cl)cc3)n2)cc1` [Example 112, 2-(4-chlorocinnamyl)-4-formylamino-6-(4-methoxyphenyl)-2H-pyridazin-3-one], the melting point lay in the range of 213 to 213.8 °C. This compound showed an IC50 in series [1] of 0.387 µM.

Turning to `CNC(=O)C1CC(c2ccc(OC)cc2)=NN(CC(C)C)C1=O` (stereo not shown) [Example 128, 4,5-dihydro-2-isobutyl-6-(4-methoxyphenyl)-4-methylcarbamoyl-2H-pyridazin-3-one], the melting point lay in the range of 124.2 to 125 °C. For the same compound, in series [1], 0.4 µM corresponded to half-maximal inhibition (IC50).
